Test results reported in PubChem BioAssay AID1963826 (Molecular Pharmacology Branch, DTP, NCI, 2024).
pIC50: −log10 of the molar value.

System: 926638-142-R-J1-PDC complex spheroid viability
Assay: Anticancer human tumor 926638-142-R-J1-PDC patient-derived endometrial carcinoma cell line growth inhibition [POLQ]
Conditions: for pIC50: curve of first compound; for viability, T/C: stronger effect = lower value
Experimental: Multicellular complex tumor spheroid response to Polymerase (POL) inhibitors (novobiocin, ART-558, RP6685) in combination with a variety of drugs and investigational agents in selected tumor cell lines
The POL inhibitors (novobiocin, ART-558, and RP6685) were evaluated both individually and in combination with standard of care and investigational anticancer small molecules within a complex spheroid model of solid tumors. . Complex spheroids include a stromal component modeled by human endothelial cells (HUVEC) and fibroblasts modeled by human mesenchymal stem cells (MSCs). The concentration ranges selected for each drug and investigational agent were based upon clinically achievable concentrations if the clinical Cmax of the agent was known.
Compounds. The drugs and investigational agents: novobiocin (NSC847541), ART-558 (NSC835418), RP-6685 (NSC848927), peposertib (NSC802822), ceralasertib (NSC780249), elimusertib (NSC800525), camonsertib (NSC841442), AZD-1390 (NSC803789), olaparib (NSC753686), talazoparib (NSC767125), rucaparib (NSC756644), sotorasib (NSC818433), MRTX-1133 (NSC836407), SN-38 (NSC673596), topotecan (NSC609699), epotoside (NSC141540), doxorubicin (NSC123127), gemcitabine (NSC613327), 5-fluorouracil (NSC19893), paclitaxel (NSC125973), vemurafenib (NSC761431), MSA-2 (NSC828583), SN-011 (NSC837082), adavosertib (NSC754352), prexasertib (NSC758257), carboplatin (NSC241240) and oxaliplatin (NSC266046), were obtained from the National Cancer Institute (NCI) Developmental Therapeutics Program Chemical Repository (21). The FDA-approved anticancer drug set is available from the Developmental Therapeutics Program at https://dtp.cancer.gov/organization/dscb/obtaining/. […] The stock solutions were prepared in dimethyl sulfoxide (DMSO, Sigma-Aldrich, St. Louis, MO, cat. D2650), except for the platinum compounds which were prepared in saline (Quality Biological, Gaithersburg, MD, cat. 114-055-101), at 800-fold the tested concentration and stored at -70 degrees C prior to their use. All drugs and investigational agents were tested over a range starting from a high concentration at or near the clinical Cmax and decreasing in half-log increments. If the clinical Cmax for an agent had not been determined, the highest concentration tested was 10 microM, except for SN-38, which was tested at a high concentration of 1 microM.
Cell Culture. All cells were maintained in an incubator at 37 degrees C and 5% CO2 with 95% humidity. The PDC lines were cultured according to standard operating procedures established by the NCI PDMR (https://pdmr.cancer.gov). Table 3 of the manuscript, lists the cell lines along with the number of the three cell types plated to form the mct-spheroids and media for tumor cell growth. After thawing, all PDC lines, except 997537-175-T-J1-PDC and 415267-285-R-J2-PDC, were cultured in Matrigel-coated flasks prepared with a working solution of 1X Ham's F-12 nutrient mix, without supplementation (Thermo Fisher Scientific, cat. 11765054), 100 U/mL penicillin-streptomycin (Thermo Fisher Scientific, cat. 15140122), and 2.5% Matrigel (Corning Inc., Corning, NY, cat. 354248) for the first three passages. The two PDC lines 997537-175-T-J1-PDC and 415267-285-R-J2-PDC were cultured on uncoated flasks. The 857933-349-R-J2-PDC line was cultured in 6C/Colon 1B media containing advanced DMEM/F-12 (Thermo Fisher Scientific, cat. 12634028), 10 mM HEPES (Thermo Fisher Scientific, cat. 15630080), 1X GlutaMAX supplement (Thermo Fisher Scientific, cat. 35050061), 0.1 mg/mL primocin (InvivoGen, San Diego, CA, cat. ant-pm-2), 10% defined fetal bovine serum, heat inactivated (HyClone Laboratories Inc., Logan, UT, cat. SH30070.03HI), 50% L-WRN conditioned media (ATCC, cat. CRL-3276), 1.25 mM N-Acetyl-L-cysteine (Sigma-Aldrich, cat. A9165), 10 mM nicotinamide (Sigma-Aldrich, cat. N0636), 1X B-27 supplement (Thermo Fisher Scientific, cat. 17504044), 1X N-2 supplement (Thermo Fisher Scientific, cat. […]

[1] = second compound 0.0316 µM, first compound 0.0316 µM
[2] = second compound 0.0316 µM, first compound 0.1 µM
[3] = second compound 0.1 µM, first compound 0.0316 µM
[4] = second compound 0.1 µM, first compound 0.1 µM
[5] = second compound 0.316 µM, first compound 0.0316 µM
[6] = second compound 0.316 µM, first compound 0.1 µM
[7] = second compound 1 µM, first compound 0.0316 µM
[8] = second compound 1 µM, first compound 0.1 µM
[9] = second compound 3.16 µM, first compound 0.0316 µM
[10] = second compound 3.16 µM, first compound 0.1 µM
[11] = second compound 10 µM, first compound 0.0316 µM
[12] = second compound 10 µM, first compound 0.1 µM
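Further: spheroids exposed to drugs for one week before readout.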
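Wherever viability, T/C is given: percent viability relative to DMSO vehicle control wells set as 100%.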

Compound: CNCc1ccc(-c2[nH]c3cc(F)cc4c3c2CCNC4=O)cc1 + Cc1cccc(N(C)C(=O)C2C(O)CCN2c2nc(C)cc(C(F)(F)F)c2C#N)c1
- pIC50 (second compound 0.0316 µM): < 5.00
- pIC50 (second compound 0.1 µM): < 5.00
- pIC50 (second compound 0.316 µM): < 5.00
- pIC50 (second compound 1 µM): < 5.00
- pIC50 (second compound 3.16 µM): < 5.00
- pIC50 (second compound 10 µM): < 5.00
- viability, T/C [1]: 69.2%
- viability, T/C [2]: 112%
- viability, T/C (second compound 0.0316 µM, first compound 0.316 µM): 100%
- viability, T/C (second compound 0.0316 µM, first compound 1 µM): 93.8%
- viability, T/C (second compound 0.0316 µM, first compound 3.16 µM): 89.9%
- viability, T/C (second compound 0.0316 µM, first compound 10 µM): 82%
- viability, T/C [3]: 103%
- viability, T/C [4]: 97.9%
- viability, T/C (second compound 0.1 µM, first compound 0.316 µM): 85.5%
- viability, T/C (second compound 0.1 µM, first compound 1 µM): 80.1%
- viability, T/C (second compound 0.1 µM, first compound 3.16 µM): 75.6%
- viability, T/C (second compound 0.1 µM, first compound 10 µM): 74.7%
- viability, T/C [5]: 104%
- viability, T/C [6]: 92.7%
- viability, T/C (second compound 0.316 µM, first compound 0.316 µM): 84.5%
- viability, T/C (second compound 0.316 µM, first compound 1 µM): 89.7%
- viability, T/C (second compound 0.316 µM, first compound 3.16 µM): 100%
- viability, T/C (second compound 0.316 µM, first compound 10 µM): 81%
- viability, T/C [7]: 91.3%
- viability, T/C [8]: 89.6%
- viability, T/C (second compound 1 µM, first compound 0.316 µM): 89.7%
- viability, T/C (second compound 1 µM, first compound 1 µM): 89%
- viability, T/C (second compound 1 µM, first compound 3.16 µM): 81%
- viability, T/C (second compound 1 µM, first compound 10 µM): 79.1%
- viability, T/C [9]: 97.8%
- viability, T/C [10]: 92.8%
- viability, T/C (second compound 3.16 µM, first compound 0.316 µM): 85.1%
- viability, T/C (second compound 3.16 µM, first compound 1 µM): 87.9%
- viability, T/C (second compound 3.16 µM, first compound 3.16 µM): 98.5%
- viability, T/C (second compound 3.16 µM, first compound 10 µM): 69.7%
- viability, T/C [11]: 88.8%
- viability, T/C [12]: 87.7%
- viability, T/C (second compound 10 µM, first compound 0.316 µM): 96.2%
- viability, T/C (second compound 10 µM, first compound 1 µM): 87.2%
- viability, T/C (second compound 10 µM, first compound 3.16 µM): 75.4%
- viability, T/C (second compound 10 µM, first compound 10 µM): 71.7%

Compound: Cn1ncnc1[C@H]1c2n[nH]c(=O)c3cc(F)cc(c23)N[C@@H]1c1ccc(F)cc1 + Cc1cccc(N(C)C(=O)C2C(O)CCN2c2nc(C)cc(C(F)(F)F)c2C#N)c1
- pIC50 (second compound 0.0316 µM): < 7.00
- pIC50 (second compound 0.1 µM): < 7.00
- pIC50 (second compound 0.316 µM): < 7.00
- pIC50 (second compound 1 µM): < 7.00
- pIC50 (second compound 3.16 µM): < 7.00
- pIC50 (second compound 10 µM): < 7.00
- viability, T/C (second compound 0.0316 µM, first compound 0.000316 µM): 100%
- viability, T/C (second compound 0.0316 µM, first compound 0.001 µM): 83.6%
- viability, T/C (second compound 0.0316 µM, first compound 0.00316 µM): 86.1%
- viability, T/C (second compound 0.0316 µM, first compound 0.01 µM): 84.9%
- viability, T/C [1]: 81.5%
- viability, T/C [2]: 73.8%
- viability, T/C (second compound 0.1 µM, first compound 0.000316 µM): 91.2%
- viability, T/C (second compound 0.1 µM, first compound 0.001 µM): 82.4%
- viability, T/C (second compound 0.1 µM, first compound 0.00316 µM): 83.6%
- viability, T/C (second compound 0.1 µM, first compound 0.01 µM): 82.5%
- viability, T/C [3]: 73.7%
- viability, T/C [4]: 78.8%
- viability, T/C (second compound 0.316 µM, first compound 0.000316 µM): 86.9%
- viability, T/C (second compound 0.316 µM, first compound 0.001 µM): 81.2%
- viability, T/C (second compound 0.316 µM, first compound 0.00316 µM): 92.9%
- viability, T/C (second compound 0.316 µM, first compound 0.01 µM): 73.4%
- viability, T/C [5]: 64.9%
- viability, T/C [6]: 65.3%
- viability, T/C (second compound 1 µM, first compound 0.000316 µM): 103%
- viability, T/C (second compound 1 µM, first compound 0.001 µM): 101%
- viability, T/C (second compound 1 µM, first compound 0.00316 µM): 70.3%
- viability, T/C (second compound 1 µM, first compound 0.01 µM): 77.2%
- viability, T/C [7]: 85.1%
- viability, T/C [8]: 68.1%
- viability, T/C (second compound 3.16 µM, first compound 0.000316 µM): 73.5%
- viability, T/C (second compound 3.16 µM, first compound 0.001 µM): 97.5%
- viability, T/C (second compound 3.16 µM, first compound 0.00316 µM): 91%
- viability, T/C (second compound 3.16 µM, first compound 0.01 µM): 67.5%
- viability, T/C [9]: 74.1%
- viability, T/C [10]: 76.8%
- viability, T/C (second compound 10 µM, first compound 0.000316 µM): 87.9%
- viability, T/C (second compound 10 µM, first compound 0.001 µM): 84.2%
- viability, T/C (second compound 10 µM, first compound 0.00316 µM): 77.3%
- viability, T/C (second compound 10 µM, first compound 0.01 µM): 80%
- viability, T/C [11]: 72.7%
- viability, T/C [12]: 75.7%
